Molecular target: PD-1/PD-L1 (Homo sapiens, UniProt Q9NZQ7)
Assay: TR-FRET PD-1/PD-L1 binding inhibition at the molecular level (free proteins)
Conditions: Tag1-PD-L1 and Tag2-PD-1 proteins, twelve concentrations from 200 nM, 2 hours at room temperature, read-out: FRET assay (IC50)
Protocol: In order to evaluate the inhibitory activity of the compounds synthesized according to the above Preparation Examples against PD-1/PD-L1 molecules in a free protein state,a TR-FRET (Time-Resolved Fluorescence Energy Transfer) experimetn was performed as described below.
Specifically, the compounds were prepared in a 96-well plate by serial dilution starting from 200 nM with 1/2 dilutions to obtain a total of twelve concentrations, and 2 µL of each compound solution was added to a 384-well plate. Thereafter, Tag1-PD-L1 protein and Tag2-PD-1 protein were each prepared at a 1x concentration, mixed at a ratio of 1:1, and 8 µL of the mixed solution was added to each well of the 384-well plate containing the compounds. Anti-Tag1 Eu Cryptate reagent and Anti-Tag2 XL665 antibody were each prepared at a 1* concentration, mixed at a ratio of 1:1, and 10 µL of the mixed solution was added to each well of the 384-well plate containing the compounds and proteins, followed by incubation at room temperature for 2 hours. Upon completion of the reaction, fluorescence signals at wavelengths of 620 nm and 665 nm were measured using a microplate reader.

Sequence of PD-1/PD-L1 (Q9NZQ7 19-238 limits assumed): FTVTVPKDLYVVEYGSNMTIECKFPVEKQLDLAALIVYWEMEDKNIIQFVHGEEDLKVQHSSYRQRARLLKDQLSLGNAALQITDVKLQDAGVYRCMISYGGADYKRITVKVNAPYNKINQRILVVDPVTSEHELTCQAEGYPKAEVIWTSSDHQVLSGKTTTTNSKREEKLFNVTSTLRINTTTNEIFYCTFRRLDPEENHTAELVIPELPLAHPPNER

| SMILES | IC50 [nM] |
| --- | --- |
| O=C(Nc1cccc(-c2cccc(Nc3nc(C(F)F)nc4cc(CN5CC[C@@H](O)C5)cnc34)c2Cl)c1Cl)c1cc2n(n1)CCC[C@@H]2N1CC(C(=O)O)C1 (stereo in doubt) [Compound 262, 1-((S)-2-((2,2'-dichloro-3'-((2-(difluoromethyl)-7-(((R)-3-hydroxypyrrolidin-1-yl)methyl)pyrido[3,2-d]pyrimidin-4-yl)amino)-[1,1'-biphenyl]-3-yl)carbamoyl)-4,5,6,7-tetrahydropyrazolo[1,5-a]pyridin-4-yl)azetidine-3-carboxylic acid] | 10 to 100 |
| Cc1c(NC(=O)c2cc3n(n2)CCC[C@@H]3N2CCC(O)CC2)cccc1-c1cccc(Nc2nc(C(F)(F)F)nc3cccnc23)c1C (stereo in doubt) [Compound 286, (S)-N-(2,2'-dimethyl-3'-((2-(trifluoromethyl)pyrido[3,2-d]pyrimidin-4-yl)amino)-[1,1'-biphenyl]-3-yl)-4-(4-hydroxypiperidin-1-yl)-4,5,6,7-tetrahydropyrazolo[1,5-a]pyridine-2-carboxamide] | 10 to 100 |
| Cc1c(NC(=O)c2cc3n(n2)CCCC3=O)cccc1-c1cccc(NC(=O)c2cc3n(n2)CCCC3=O)c1C [Compound 1, N,N'-(2,2'-dimethyl-[1,1'-biphenyl]-3,3'-diyl)bis(4-oxo-4,5,6,7-tetrahydropyrazolo[1,5-a]pyridine-2-carboxamide)] | < 10 |
| Cc1c(NC(=O)c2cc3n(n2)CCCC3=O)cccc1-c1cccc(NC(=O)c2cc3n(n2)CCCC3O)c1C (centres unmarked) [Compound 2, N-(2,2'-dimethyl-3'-(4-oxo-4,5,6,7-tetrahydropyrazolo[1,5-a]pyridine-2-carboxamido)-[1,1'-biphenyl]-3-yl)-4-hydroxy-4,5,6,7-tetrahydropyrazolo[1,5-a]pyridine-2-carboxamide] | < 10 |
| Cc1c(NC(=O)c2cc3n(n2)CCCC3O)cccc1-c1cccc(NC(=O)c2cc3n(n2)CCCC3O)c1C (centres unmarked) [Compound 2-1, N,N'-(2,2'-dimethyl-[1,1'-biphenyl]-3,3'-diyl)bis(4-hydroxy-4,5,6,7-tetrahydropyrazolo[1,5-a]pyridine-2-carboxamide)] | < 10 |
| Cc1c(NC(=O)c2cc3n(n2)CCCC3=O)cccc1-c1cccc(NC(=O)c2cc3n(n2)CCCC3NCCO)c1C (centres unmarked) [Compound 3, N-(2,2'-dimethyl-3'-(4-oxo-4,5,6,7-tetrahydropyrazolo[1,5-a]pyridine-2-carboxamido)-[1,1'-biphenyl]-3-yl)-4-((2-hydroxyethyl)amino)-4,5,6,7-tetrahydropyrazolo[1,5-a]pyridine-2-carboxamide] | < 10 |
| Cc1c(NC(=O)c2cc3n(n2)CCCC3O)cccc1-c1cccc(NC(=O)c2cc3n(n2)CCCC3NCCO)c1C (centres unmarked) [Compound 3-1, 4-hydroxy-N-(3'-(4-((2-hydroxyethyl)amino)-4,5,6,7-tetrahydropyrazolo[1,5-a]pyridine-2-carboxamido)-2,2'-dimethyl-[1,1'-biphenyl]-3-yl)-4,5,6,7-tetrahydropyrazolo[1,5-a]pyridine-2-carboxamide] | < 10 |
| CC(=O)NCCNC1CCCn2nc(C(=O)Nc3cccc(-c4cccc(NC(=O)c5cc6n(n5)CCCC6NCCNC(C)=O)c4C)c3C)cc21 (centres unmarked) [Compound 5, N,N'-(2,2'-dimethyl-[1,1'-biphenyl]-3,3'-diyl)bis(4-((2-acetamidoethyl)amino)-4,5,6,7-tetrahydropyrazolo[1,5-a]pyridine-2-carboxamide)] | < 10 |
| Cc1c(NC(=O)c2cc3n(n2)CCCC3NCCO)cccc1-c1cccc(NC(=O)c2cc3n(n2)CCCC3NCCO)c1C (centres unmarked) [Compound 6, N,N'-(2,2'-dimethyl-[1,1'-biphenyl]-3,3'-diyl)bis(4-((2-hydroxyethyl)amino)-4,5,6,7-tetrahydropyrazolo[1,5-a]pyridine-2-carboxamide)] | < 10 |
| O=C(O)CNC1CCCn2nc(C(=O)Nc3cccc(-c4cccc(NC(=O)c5cc6n(n5)CCCC6NCC(=O)O)c4Cl)c3Cl)cc21 (centres unmarked) [Compound 8, 2-[[2-[[3-[3-[[4-(carboxymethylamino)-4,5,6,7-tetrahydropyrazolo[1,5-a]pyridine-2-carbonyl]amino]-2-chlorophenyl]-2-chlorophenyl]carbamoyl]-4,5,6,7-tetrahydropyrazolo[1,5-a]pyridin-4-yl]amino]acetic acid] | < 10 |
| Cc1c(NC(=O)c2cc3n(n2)CCCC3O)cccc1-c1cccc(Nc2nccc3cc(CN4CC[C@@H](O)C4)cnc23)c1C (stereo partly drawn) [Compound 11, 4-hydroxy-N-(3'-((3-(((R)-3-hydroxypyrrolidin-1-yl)methyl)-1,7-naphthyridin-8-yl)amino)-2,2'-dimethyl-[1,1'-biphenyl]-3-yl)-4,5,6,7-tetrahydropyrazolo[1,5-a]pyridine-2-carboxamide] | < 10 |
| CC(=O)NCCNC1CCCn2nc(C(=O)Nc3cccc(-c4cccc(Nc5nccc6cc(CN7CC[C@@H](O)C7)cnc56)c4C)c3C)cc21 (stereo partly drawn) [Compound 12, 4-((2-acetamidoethyl)amino)-N-(3'-((3-(((R)-3-hydroxypyrrolidin-1-yl)methyl)-1,7-naphthyridin-8-yl)amino)-2,2'-dimethyl-[1,1'-biphenyl]-3-yl)-4,5,6,7-tetrahydropyrazolo[1,5-a]pyridine-2-carboxamide] | < 10 |
| Cc1c(NC(=O)c2cc3n(n2)CCCC3N2CC[C@@H](O)C2)cccc1-c1cccc(Nc2nccc3cc(CN4CC[C@@H](O)C4)cnc23)c1C (stereo partly drawn) [Compound 13, 4-((R)-3-hydroxypyrrolidin-1-yl)-N-(3'-((3-(((R)-3-hydroxypyrrolidin-1-yl)methyl)-1,7-naphthyridin-8-yl)amino)-2,2'-dimethyl-[1,1'-biphenyl]-3-yl)-4,5,6,7-tetrahydropyrazolo[1,5-a]pyridine-2-carboxamide] | < 10 |
| Cc1c(NC(=O)c2cc3n(n2)CCCC3NCCO)cccc1-c1cccc(Nc2nccc3cc(CN4CC[C@@H](O)C4)cnc23)c1C (stereo partly drawn) [Compound 14, 4-((2-hydroxyethyl)amino)-N-(3'-((3-(((R)-3-hydroxypyrrolidin-1-yl)methyl)-1,7-naphthyridin-8-yl)amino)-2,2'-dimethyl-[1,1'-biphenyl]-3-yl)-4,5,6,7-tetrahydropyrazolo[1,5-a]pyridine-2-carboxamide] | < 10 |

Other lines, results leading:

| IC50 [nM] | SMILES |
| --- | --- |
| 10 to 100 | O=C(Nc1cccc(-c2cccc(Nc3nc(C(F)F)nc4cccnc34)c2Cl)c1Cl)c1cc2n(n1)CCC[C@@H]2N1CCC(C(=O)O)CC1 (stereo in doubt) [Compound 290, (S)-1-(2-((2,2'-dichloro-3'-((2-(difluoromethyl)pyrido[3,2-d]pyrimidin-4-yl)amino)-[1,1'-biphenyl]-3-yl)carbamoyl)-4,5,6,7-tetrahydropyrazolo[1,5-a]pyridin-4-yl)piperidine-4-carboxylic acid] |
| 10 to 100 | O=C(O)CN[C@H]1CCCn2nc(C(=O)Nc3cccc(-c4cccc(Nc5nc(C(F)F)nc6cc(CN7CC[C@@H](O)C7)cnc56)c4Cl)c3Cl)cc21 (stereo in doubt) [Compound 294, 2-(((S)-2-((2,2'-dichloro-3'-((2-(difluoromethyl)-7-(((R)-3-hydroxypyrrolidin-1-yl)methyl)pyrido[3,2-d]pyrimidin-4-yl)amino)-[1,1'-biphenyl]-3-yl)carbamoyl)-4,5,6,7-tetrahydropyrazolo[1,5-a]pyridin-4-yl)amino)acetic acid] |
| 10 to 100 | CC(C)c1nc(Nc2cccc(-c3cccc(NC(=O)c4cc5n(n4)CCC[C@@H]5N4CCC(C(=O)O)CC4)c3Cl)c2Cl)c2ncccc2n1 (stereo in doubt) [Compound 298, (S)-1-(2-((2,2'-dichloro-3'-((2-isopropylpyrido[3,2-d]pyrimidin-4-yl)amino)-[1,1'-biphenyl]-3-yl)carbamoyl)-4,5,6,7-tetrahydropyrazolo[1,5-a]pyridin-4-yl)piperidine-4-carboxylic acid] |
| 10 to 100 | CC(C)c1nc(Nc2cccc(-c3cccc(NC(=O)c4cc5n(n4)CCC[C@@H]5NC(C)(C)C(=O)O)c3Cl)c2Cl)c2ncccc2n1 (stereo in doubt) [Compound 300, (S)-2-((2-((2,2'-dichloro-3'-((2-isopropyl-pyrido[3,2-d]pyrimidin-4-yl)amino)-[1,1'-biphenyl]-3-yl)carbamoyl)-4,5,6,7-tetrahydropyrazolo[1,5-a]pyridin-4-yl)amino)-2-methylpropanoic acid] |
| 10 to 100 | O=C(Nc1cccc(-c2cccc(Nc3nc(C(F)F)nc4cccnc34)c2Cl)c1Cl)c1cc2n(n1)CCC[C@@H]2N1CCC(O)CC1 (stereo in doubt) [Compound 306, (S)-N-(2,2'-dichloro-3'-((2-(difluoromethyl)pyrido[3,2-d]pyrimidin-4-yl)amino)-[1,1'-biphenyl]-3-yl)-4-(4-hydroxypiperidin-1-yl)-4,5,6,7-tetrahydropyrazolo[1,5-a]pyridine-2-carboxamide] |
| 10 to 100 | Cc1c(NC(=O)c2cc3n(n2)CCC[C@H]3N2CCC(C(=O)O)CC2)cccc1-c1cccc(Nc2nc(C(F)(F)F)nc3cc(CN4CC[C@@H](O)C4)cnc23)c1C (stereo in doubt) [Compound 343, 1-((R)-2-((3'-((7-(((R)-3-hydroxypyrrolidin-1-yl)methyl)-2-(trifluoromethyl)pyrido[3,2-d]pyrimidin-4-yl)amino)-2,2'-dimethyl-[1,1'-biphenyl]-3-yl)carbamoyl)-4,5,6,7-tetrahydropyrazolo[1,5-a]pyridin-4-yl)piperidine-4-carboxylic acid] |

— patent EP4755888A1 (ILAb Co., Ltd., priority 2023, dated 2025)
